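Dose response: 5 concentrations. Exposure: 48 h. Format: 96-well plates. Endpoint: linear interpolation; highest concentration if not reached. At the GI50, growth is halved.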 Calls of active or inactive are those of the source. No stated cut-off is given here; in the data, active = GI50 up to about 1.1 µM and inactive = higher.
What was measured:
Assay in all cases: inhibition of tumour cell growth, NCI panel, 48 h
[1] = test system: NCI-H23
[2] = test system: SNB-78
[3] = test system: SNB-19
[4] = test system: OVCAR-8
[5] = test system: UO-31
[6] = test system: DMS-273
[7] = test system: DLD-1
[8] = test system: SK-OV-3
[9] = test system: SW-620
[10] = test system: NCI-H522
[11] = test system: HOP-92
[12] = test system: EKVX
[13] = test system: HL-60
[14] = test system: COLO 205
[15] = test system: SN12C
[16] = test system: RXF 393
[17] = test system: OVCAR-4
[18] = test system: CCRF-CEM

Measured: GI50

N#CCCN(c1ccc(/C=N/c2ccccc2Cl)cc1)S(=O)(=O)c1ccccc1
inactive: [1] > 100 µM | [2] > 100 µM | [3] > 100 µM | [4] > 100 µM | [5] > 100 µM | [6] > 100 µM | [7] > 100 µM | [8] > 100 µM | [9] > 100 µM | [10] > 100 µM | [11] > 100 µM | [12] > 100 µM | [13] > 100 µM | [14] > 100 µM | [15] > 100 µM | [16] > 100 µM | [17] > 100 µM

O=C(O)/C=C/c1ccc(O)c(O)c1 [CAFFEIC ACID]
inactive: [1] > 100 µM | [2] > 100 µM | [3] > 100 µM | [4] > 100 µM | [5] 77.6 µM | [6] > 100 µM | [7] > 100 µM | [8] > 100 µM | [9] > 43.3 µM | [10] 97.5 µM | [11] > 100 µM | [12] > 100 µM | [13] > 100 µM | [14] > 100 µM | [15] > 100 µM | [18] > 57.5 µM | [16] > 100 µM | [17] > 100 µM

COc1ccc2cc3n(c2c1)CCc1cc(OC)c(OC)cc1-3
inactive: [1] > 100 µM | [2] > 100 µM | [3] > 100 µM | [4] > 100 µM | [5] > 100 µM | [6] > 100 µM | [7] > 100 µM | [8] > 100 µM | [9] > 100 µM | [10] > 100 µM | [11] > 100 µM | [12] > 100 µM | [13] > 100 µM | [14] > 100 µM | [15] > 100 µM | [18] > 100 µM | [16] > 100 µM | [17] 45.9 µM

Cc1cc2c(C=O)n[nH]c2c(C#N)c1C
inactive: [1] 29.6 µM | [2] 95.3 µM | [3] > 100 µM | [4] 43 µM | [5] 34.5 µM | [6] 43.1 µM | [7] > 100 µM | [8] > 100 µM | [9] 40.6 µM | [10] 10.4 µM | [11] 31.3 µM | [12] > 100 µM | [14] > 100 µM | [15] 29.3 µM | [18] > 100 µM | [17] 29.2 µM

Cc1c2nc3ccccc3sc-2cc(=O)c1C
inactive: [1] 10.3 µM | [2] > 24.3 µM | [3] > 100 µM | [4] 49.7 µM | [5] 36 µM | [6] 50.6 µM | [7] 12.7 µM | [8] > 100 µM | [9] > 90.2 µM | [10] > 57.3 µM | [11] > 65.9 µM | [12] > 80.4 µM | [13] 14.1 µM | [14] 34.7 µM | [15] > 10 µM | [18] 20.9 µM | [16] 90.8 µM | [17] 65.3 µM

N#CC(Sc1ccccc1)C(N)=O (stereo not given)
inactive: [1] > 100 µM | [2] > 100 µM | [3] > 100 µM | [4] > 100 µM | [5] > 100 µM | [6] > 100 µM | [7] > 100 µM | [8] > 100 µM | [9] > 100 µM | [10] > 100 µM | [11] > 100 µM | [12] > 100 µM | [13] > 100 µM | [14] > 100 µM | [15] > 100 µM | [18] > 100 µM | [16] > 100 µM | [17] > 100 µM

c1ccc2c(OCCSCCCCCCCCCCSCCOc3cccc4ccccc34)cccc2c1
inactive: [1] > 100 µM | [2] > 100 µM | [3] > 100 µM | [4] > 100 µM | [5] > 100 µM | [6] > 100 µM | [7] > 100 µM | [8] > 100 µM | [9] > 100 µM | [10] > 100 µM | [11] > 100 µM | [12] > 100 µM | [13] > 100 µM | [14] > 100 µM | [15] > 100 µM | [18] > 100 µM | [16] > 100 µM

CC#CC(OCC)(OCC)OCC
inactive: [1] > 100 µM | [2] > 100 µM | [3] > 100 µM | [4] > 100 µM | [5] > 100 µM | [6] 20.6 µM | [7] > 100 µM | [8] > 100 µM | [10] 53.2 µM | [11] > 100 µM | [12] > 100 µM | [13] > 100 µM | [14] 57.1 µM | [15] > 100 µM | [18] > 100 µM | [16] > 100 µM | [17] > 100 µM

[N-]=[N+]=NCC(O)Cn1cnc2c(NC(=O)c3ccccc3)ncnc21 (stereo not given)
inactive: [1] > 100 µM | [2] > 100 µM | [3] > 100 µM | [4] > 100 µM | [5] > 100 µM | [6] 64.4 µM | [7] > 100 µM | [9] 43.8 µM | [10] > 100 µM | [11] > 100 µM | [12] > 100 µM | [13] > 100 µM | [14] 27.8 µM | [15] > 100 µM | [18] > 100 µM | [16] > 100 µM | [17] > 100 µM

CCOC(=O)NC1C2CC(=O)OC(O2)C1OC(C)=O (stereo not given)
inactive: [1] > 100 µM | [2] > 100 µM | [3] > 100 µM | [4] > 100 µM | [5] 60.7 µM | [6] > 100 µM | [7] 90.6 µM | [8] > 100 µM | [9] > 100 µM | [10] > 100 µM | [11] > 100 µM | [12] > 100 µM | [14] > 100 µM | [15] 99.3 µM | [18] > 100 µM | [16] > 100 µM | [17] > 100 µM

O=C(CC(=O)c1cccc([N+](=O)[O-])c1)C(=O)Nc1ccccc1
inactive: [1] > 100 µM | [2] > 100 µM | [3] > 100 µM | [4] > 100 µM | [5] > 100 µM | [6] > 100 µM | [7] > 100 µM | [9] > 100 µM | [10] > 100 µM | [11] > 100 µM | [12] > 100 µM | [13] > 100 µM | [15] > 100 µM | [18] > 100 µM | [16] > 100 µM | [17] > 100 µM

CCCCNS(=O)(=O)c1ccc(-c2ccc3c(c2)-c2ccc(S(=O)(=O)NCCCC)cc2S3(=O)=O)cc1
inactive: [1] 12.7 µM | [2] 12.4 µM | [4] 7.98 µM | [5] 42.5 µM | [6] 20 µM | [7] 43.6 µM | [8] 16.9 µM | [9] 15.2 µM | [10] 14.5 µM | [11] 19.3 µM | [12] 39.4 µM | [13] > 100 µM | [14] 25.3 µM | [18] 26.1 µM | [16] 10.8 µM | [17] 2.65 µM

Nc1ncnc2c1ncn2C1OC(CSC(F)(F)F)C(O)C1O (stereo not given)
inactive: [1] > 100 µM | [2] > 100 µM | [4] > 100 µM | [5] > 100 µM | [6] > 100 µM | [7] > 100 µM | [8] > 100 µM | [9] > 100 µM | [10] > 100 µM | [11] > 100 µM | [12] > 100 µM | [13] > 100 µM | [14] > 100 µM | [15] > 100 µM | [18] > 100 µM | [17] > 100 µM

CN[C@@H](C)[C@@H](N)c1ccccc1
inactive: [1] > 100 µM | [2] > 100 µM | [3] > 100 µM | [4] > 100 µM | [5] > 100 µM | [6] > 100 µM | [7] > 100 µM | [8] > 100 µM | [9] > 100 µM | [10] > 100 µM | [11] > 100 µM | [12] > 100 µM | [14] > 100 µM | [15] > 100 µM | [18] > 100 µM | [16] > 100 µM

O=C(O)/C(=C\c1ccccc1Cl)S(=O)(=O)c1ccccc1
inactive: [2] > 100 µM | [3] > 100 µM | [4] > 100 µM | [5] > 100 µM | [6] > 100 µM | [7] > 100 µM | [8] > 100 µM | [9] > 100 µM | [10] > 100 µM | [11] > 100 µM | [13] > 100 µM | [14] > 100 µM | [15] > 100 µM | [18] 14.5 µM | [16] > 100 µM | [17] > 100 µM

C[Si](C)(C)/C(Br)=C\CCN1C(=O)CCC1=O
inactive: [1] > 100 µM | [2] > 100 µM | [3] > 100 µM | [4] > 100 µM | [5] > 100 µM | [6] > 100 µM | [7] > 100 µM | [8] > 100 µM | [9] > 100 µM | [11] > 100 µM | [12] > 100 µM | [13] > 100 µM | [14] > 100 µM | [15] > 100 µM | [18] > 100 µM | [16] > 100 µM | [17] > 100 µM

Reference: ChEMBL document CHEMBL1201862, “PubChem BioAssay data set” (2004)
